How the values were obtained:
[1] = test system: ENR+CD organoids (ISC to Paneth cell differentiation); assay: Primary screen: CCh-stimulated lysozyme secretion LYZ.S, 2.5-D 384-well ENR+CD organoid differentiation; format: cell-based, mouse; conditions: primary screen
From the text: (§1) High-throughput screening.

[2] = test system: ENR+CD organoids (ISC to Paneth cell differentiation); assay: Primary screen: basal (non-stimulated) lysozyme secretion LYZ.NS, 2.5-D 384-well ENR+CD organoid differentiation; format: cell-based, mouse
From the text: as §1

ENR+CD organoids = assay: Primary screen: ATP (CellTiter-Glo 3D, CTG) cell number/viability, 2.5-D 384-well ENR+CD organoids;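 note: compounds given at plating and again on day 3 over a 6-day differentiation from ENR+CV stem-cell-enriched precursors, ATP measured on day 6, plate median as control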
[3] = primary screen, standard z score, dose 0.08 uM
[4] = primary screen, standard z score, dose 0.40 uM
[5] = primary screen, standard z score, dose 2.00 uM
[6] = primary screen, standard z score, dose 10.00 uM
[7] = primary screen, dose 0.08 uM, standard z score
[8] = primary screen, dose 0.40 uM, standard z score
[9] = primary screen, dose 2.00 uM, standard z score
[10] = primary screen, dose 10.00 uM, standard z score
[11] = primary screen; dose 0.08 uM; FC vs plate median
[12] = primary screen; dose 0.40 uM; FC vs plate median
[13] = primary screen; dose 2.00 uM; FC vs plate median
[14] = primary screen; dose 10.00 uM; FC vs plate median
[15] = dose 0.08 uM, FC relative to plate median
[16] = dose 0.40 uM, FC relative to plate median
[17] = dose 2.00 uM, FC relative to plate median
[18] = dose 10.00 uM, FC relative to plate median
[19] = primary screen, dose 0.08 uM, FC relative to plate median
[20] = primary screen, dose 0.40 uM, FC relative to plate median
[21] = primary screen, dose 2.00 uM, FC relative to plate median
[22] = primary screen, dose 10.00 uM, FC relative to plate median

Work on `c1ccc(CNc2nc(NCc3ccccc3)c3ccccc3n2)cc1` [DBeQ] yielded a Dose.FC.LYZ.S ([1]; dose 0.08 uM) of 0.045 log2 fold change, a Dose.FC.LYZ.S ([1]; dose 0.40 uM) of 0.210 log2 fold change and a Dose.FC.LYZ.S ([1]; dose 2.00 uM) of −0.103 log2 fold change. The Dose.FC.LYZ.S ([1]; dose 10.00 uM) was −0.423 log2 fold change, the Dose.FC.LYZ.NS ([2]; primary screen, dose 0.08 uM) was 0.097 log2 fold change and the Dose.FC.LYZ.NS ([2]; primary screen, dose 0.40 uM) was 0.064 log2 fold change. For the same compound, the Dose.FC.LYZ.NS ([2]; primary screen, dose 2.00 uM) was −0.048 log2 fold change, the Dose.FC.LYZ.NS ([2]; primary screen, dose 10.00 uM) was −0.296 log2 fold change and the Z.LYZ.NS [2, 3] was 0.844. For the same compound, the Z.LYZ.NS [2, 4] was 0.558, the Z.LYZ.NS [2, 5] was −0.414 and the Z.LYZ.NS [2, 6] was −2.577. For the same compound, the Dose.FC.CTG (ENR+CD organoids; primary screen, dose 0.08 uM) was 0.119 log2 fold change, the Dose.FC.CTG (ENR+CD organoids; primary screen, dose 0.40 uM) was −0.013 log2 fold change and the Dose.FC.CTG (ENR+CD organoids; primary screen, dose 2.00 uM) was 0.004 log2 fold change. It also gave a Dose.FC.CTG (ENR+CD organoids; primary screen, dose 10.00 uM) of −1.133 log2 fold change, a Z.CTG (ENR+CD organoids; [3]) of 0.285 and a Z.CTG (ENR+CD organoids; [4]) of −0.031. For the same compound, the Z.CTG (ENR+CD organoids; [5]) was 0.010 and the Z.CTG (ENR+CD organoids; [6]) was −2.706.

`Nc1nc(CC(=O)Nc2ccc(CCNC[C@H](O)c3ccccc3)cc2)cs1` [Mirabegron] was tested, and the Dose.FC.LYZ.S ([1]; dose 0.08 uM, FC vs plate median) was 0.148 log2 fold change, the Dose.FC.LYZ.S ([1]; dose 0.40 uM, FC vs plate median) was −0.016 log2 fold change and the Dose.FC.LYZ.S ([1]; dose 2.00 uM, FC vs plate median) was −0.049 log2 fold change. The Dose.FC.LYZ.S ([1]; dose 10.00 uM, FC vs plate median) was −0.010 log2 fold change, the Z.LYZ.NS [2, 7] was 1.201 and the Z.LYZ.NS [2, 8] was −0.259. The Z.LYZ.NS [2, 9] was −0.301, the Z.LYZ.NS [2, 10] was 0.193 and the Dose.FC.LYZ.NS [2, 11] was 0.138 log2 fold change. For the same compound, the Dose.FC.LYZ.NS [2, 12] was −0.030 log2 fold change, the Dose.FC.LYZ.NS [2, 13] was −0.035 log2 fold change and the Dose.FC.LYZ.NS [2, 14] was 0.022 log2 fold change. For the same compound, the Dose.FC.CTG (ENR+CD organoids; [11]) was 0.029 log2 fold change, the Dose.FC.CTG (ENR+CD organoids; [12]) was −0.335 log2 fold change and the Dose.FC.CTG (ENR+CD organoids; [13]) was 0.019 log2 fold change. The Dose.FC.CTG (ENR+CD organoids; [14]) was −0.051 log2 fold change.

With `CC(C)c1noc(N2CCC(COc3ccc(-c4ccc(S(C)(=O)=O)cc4)nc3)CC2)n1` [GSK1292263] the “Dose.FC.LYZ.S (log2 fold change)” value ([1]; dose 0.08 uM) was 0.111, the “Dose.FC.LYZ.S (log2 fold change)” value ([1]; dose 0.40 uM) was 0.101 and the “Dose.FC.LYZ.S (log2 fold change)” value ([1]; dose 2.00 uM) was 0.060. The “Dose.FC.LYZ.S (log2 fold change)” value ([1]; dose 10.00 uM) was 0.027, the “Dose.FC.LYZ.NS (log2 fold change)” value ([2]; primary screen, dose 0.08 uM) was 0.078 and the “Z.LYZ.NS (standard z score)” value ([2]; primary screen, dose 0.08 uM) was 0.681. The “Dose.FC.LYZ.NS (log2 fold change)” value ([2]; primary screen, dose 0.40 uM) was 0.050, the “Z.LYZ.NS (standard z score)” value ([2]; primary screen, dose 0.40 uM) was 0.434 and the “Dose.FC.LYZ.NS (log2 fold change)” value ([2]; primary screen, dose 2.00 uM) was 0.028. For the same compound, the “Z.LYZ.NS (standard z score)” value ([2]; primary screen, dose 2.00 uM) was 0.240, the “Dose.FC.LYZ.NS (log2 fold change)” value ([2]; primary screen, dose 10.00 uM) was 0.020 and the “Z.LYZ.NS (standard z score)” value ([2]; primary screen, dose 10.00 uM) was 0.173. For the same compound, the “Dose.FC.CTG (log2 fold change)” value (ENR+CD organoids; primary screen, dose 0.08 uM) was 0.161, the “Z.CTG (standard z score)” value (ENR+CD organoids; primary screen, dose 0.08 uM) was 0.384 and the “Dose.FC.CTG (log2 fold change)” value (ENR+CD organoids; primary screen, dose 0.40 uM) was 0.192. The “Z.CTG (standard z score)” value (ENR+CD organoids; primary screen, dose 0.40 uM) was 0.458, the “Dose.FC.CTG (log2 fold change)” value (ENR+CD organoids; primary screen, dose 2.00 uM) was 0.224 and the “Z.CTG (standard z score)” value (ENR+CD organoids; primary screen, dose 2.00 uM) was 0.535. The “Dose.FC.CTG (log2 fold change)” value (ENR+CD organoids; primary screen, dose 10.00 uM) was 0.196 and the “Z.CTG (standard z score)” value (ENR+CD organoids; primary screen, dose 10.00 uM) was 0.468.

In the case of `COc1cccc(C=NCCN=Cc2cccc(OC)c2[O-])c1[O-].[Cl-].[Mn+3]` [EUK 134], the Dose.FC.LYZ.S ([1]; dose 0.08 uM) is reported as 0.025 log2 fold change, the Dose.FC.LYZ.S ([1]; dose 0.40 uM) is reported as 0.057 log2 fold change and the Dose.FC.LYZ.S ([1]; dose 2.00 uM) is reported as −0.034 log2 fold change. The Dose.FC.LYZ.S ([1]; dose 10.00 uM) was −0.132 log2 fold change, the Dose.FC.LYZ.NS ([2]; primary screen, dose 0.08 uM) was 0.068 log2 fold change and the Dose.FC.LYZ.NS ([2]; primary screen, dose 0.40 uM) was 0.003 log2 fold change. It also gave a Dose.FC.LYZ.NS ([2]; primary screen, dose 2.00 uM) of 0.028 log2 fold change, a Dose.FC.LYZ.NS ([2]; primary screen, dose 10.00 uM) of −0.085 log2 fold change and a Z.LYZ.NS [2, 3] of 0.594. It also gave a Z.LYZ.NS [2, 4] of 0.026, a Z.LYZ.NS [2, 5] of 0.247 and a Z.LYZ.NS [2, 6] of −0.741. For the same compound, the Dose.FC.CTG (ENR+CD organoids; primary screen, dose 0.08 uM) was −0.015 log2 fold change, the Dose.FC.CTG (ENR+CD organoids; primary screen, dose 0.40 uM) was −0.162 log2 fold change and the Dose.FC.CTG (ENR+CD organoids; primary screen, dose 2.00 uM) was 0.091 log2 fold change. It also gave a Dose.FC.CTG (ENR+CD organoids; primary screen, dose 10.00 uM) of −0.024 log2 fold change, a Z.CTG (ENR+CD organoids; [3]) of −0.035 and a Z.CTG (ENR+CD organoids; [4]) of −0.387. The Z.CTG (ENR+CD organoids; [5]) was 0.217 and the Z.CTG (ENR+CD organoids; [6]) was −0.057.

Work on `O=C(NC[C@H]1CN(c2ccc(N3CCOCC3=O)cc2)C(=O)O1)c1ccc(Cl)s1` [Rivaroxaban] yielded a Dose.FC.LYZ.S [1, 15] of 0.136 log2 fold change, a Dose.FC.LYZ.S [1, 16] of −0.027 log2 fold change and a Dose.FC.LYZ.S [1, 17] of 0.063 log2 fold change. The Dose.FC.LYZ.S [1, 18] was −0.048 log2 fold change, the Dose.FC.LYZ.NS [2, 19] was 0.108 log2 fold change and the Z.LYZ.NS [2, 7] was 0.941. It also gave a Dose.FC.LYZ.NS [2, 20] of −0.029 log2 fold change, a Z.LYZ.NS [2, 8] of −0.248 and a Dose.FC.LYZ.NS [2, 21] of 0.153 log2 fold change. The Z.LYZ.NS [2, 9] was 1.336, the Dose.FC.LYZ.NS [2, 22] was −0.045 log2 fold change and the Z.LYZ.NS [2, 10] was −0.390. The Dose.FC.CTG (ENR+CD organoids; [19]) was 0.021 log2 fold change, the Dose.FC.CTG (ENR+CD organoids; [20]) was 0.195 log2 fold change and the Dose.FC.CTG (ENR+CD organoids; [21]) was 0.052 log2 fold change. For the same compound, the Dose.FC.CTG (ENR+CD organoids; [22]) was 0.044 log2 fold change.

Work on `Cc1nn(-c2ccccc2)c(C)c1/C=N/N1CCN(Cc2ccccc2)CC1` [SANT-1] yielded a Dose.FC.LYZ.S [1, 15] of 0.112 log2 fold change, a Dose.FC.LYZ.S [1, 16] of 0.024 log2 fold change and a Dose.FC.LYZ.S [1, 17] of 0.101 log2 fold change. The Dose.FC.LYZ.S [1, 18] was −0.120 log2 fold change, the Dose.FC.LYZ.NS [2, 19] was 0.056 log2 fold change and the Z.LYZ.NS [2, 7] was 0.485. It also gave a Dose.FC.LYZ.NS [2, 20] of 0.000 log2 fold change, a Z.LYZ.NS [2, 8] of 0.002 and a Dose.FC.LYZ.NS [2, 21] of 0.175 log2 fold change. The Z.LYZ.NS [2, 9] was 1.528, the Dose.FC.LYZ.NS [2, 22] was −0.049 log2 fold change and the Z.LYZ.NS [2, 10] was −0.430. It also gave a Dose.FC.CTG (ENR+CD organoids; [19]) of 0.308 log2 fold change, a Z.CTG (ENR+CD organoids; [7]) of 0.736 and a Dose.FC.CTG (ENR+CD organoids; [20]) of 0.078 log2 fold change. For the same compound, the Z.CTG (ENR+CD organoids; [8]) was 0.186, the Dose.FC.CTG (ENR+CD organoids; [21]) was 0.137 log2 fold change and the Z.CTG (ENR+CD organoids; [9]) was 0.327. For the same compound, the Dose.FC.CTG (ENR+CD organoids; [22]) was −0.042 log2 fold change and the Z.CTG (ENR+CD organoids; [10]) was −0.100.
